{"source": "patent EP0707593B1", "about": "“ORALLY ADMINISTERABLE ESTERS OF 14 ALPHA,15 ALPHA-METHYLENE-OESTRADIOL WITH AN OESTROGENIC ACTION” (Jenapharm GmbH & Co. KG, priority 1993, dated 1995)", "system": "adulte ovarektomierte Ratten", "experiment": "Uterus wet weight after single oral application in adult ovariectomized rats (oral estrogenic effect, dose-response analysis)", "format": "in vivo", "conditions": "suspended in Myrj, 3-100 µg/T (dose refers to steroid part), uterus wet weight on day 4, Abbildungen 1 und 2", "description": "Als Vergleiche dienten Ethinylestradiol (EE) und 14α,15α-Methylen-estra-1,3,5(10)-trien-3,17β-diol (Code: J824) Die Ermittlung der Uterusfeuchtmassen nach einmaliger oraler Substanzapplikation sowie die Dosis-Wirkungsanalysen der Substanzen wurde zur Bemessung einer Estrogenwirkung herangezogen.\nSowohl Uterus als auch Vagina zeigen bei ovarektomierten Ratten eine von der Estrogendosis abhängige Gewichtszunahme. Diese ist auf eine Proliferation der Schleimhäute, erhöhte Proteinsynthese, aber auch auf eine Wassereinlagerung zurückzuführen. Für die der Erfindung zu Grunde liegenden Untersuchungen wurden adulte ovarektomierte Ratten eingesetzt. In einer kontrollierten Studie wurden Ester des 14α,15α-Methylen-estradiols auf estrogene Wirkung bei oraler Applikation gegen Ethinylestradiol(EE) und 14α,15α-Methylen-estradiol (J 824) geprüft. Die angegebenen Dosierungen beziehen sich auf den Steroidkern der Moleküle. Die Testsubstanzen wurden einmalig oral appliziert. Als Parameter einer Estrogenwirkung wurden am 4. Tag des Versuches die Uterusgewichte ermittelt (Feuchtgewichte).\nWeibliche Ratten [Stamm: BOR:WISW (SPF/Cpb)], Körpermasse zu Versuchsbeginn 200 - 240 g wurden ovarektomiert und 10 Tage nach diesem Eingriff randomisiert den Versuchsgruppen zugeordnet. Dann erfolgte die einmalige orale Applikation (Tag 1) der Prüfsubstanzen. Am 4. […]", "data": [{"smiles": "C[C@]12CC[C@@H]3c4ccc(O)cc4CC[C@H]3[C@@]13C[C@H]3C[C@@H]2O", "note": "[J824, 14α,15α-Methylen-estra-1,3,5(10)-trien-3,17β-diol]", "values": [{"measurement": "orale Estrogenwirkung (Uterusfeuchtmassen)", "result": "bessere estrogene Wirkung des J824 gegenüber EE"}]}]}
